Positions of bridges follow the written chain, without caps; N, C: chain ends. Non-standard residues stand in square brackets, D forms with d. Residues, ends and D or L forms follow the SMILES beside them.
How the values were obtained:
[1] = target: T1, USP27x/ATXN7L3/ENY2 (Homo sapiens, UniProt A6NNY8); assay: Inhibition of H2B DUB complexes, Ub-AMC cleavage: USP27x complex; type: biochemical; details: 100 nM complex, 5 μM Ub-AMC
T1 construct: made in house
T1 sequence (A6NNY8 1-438): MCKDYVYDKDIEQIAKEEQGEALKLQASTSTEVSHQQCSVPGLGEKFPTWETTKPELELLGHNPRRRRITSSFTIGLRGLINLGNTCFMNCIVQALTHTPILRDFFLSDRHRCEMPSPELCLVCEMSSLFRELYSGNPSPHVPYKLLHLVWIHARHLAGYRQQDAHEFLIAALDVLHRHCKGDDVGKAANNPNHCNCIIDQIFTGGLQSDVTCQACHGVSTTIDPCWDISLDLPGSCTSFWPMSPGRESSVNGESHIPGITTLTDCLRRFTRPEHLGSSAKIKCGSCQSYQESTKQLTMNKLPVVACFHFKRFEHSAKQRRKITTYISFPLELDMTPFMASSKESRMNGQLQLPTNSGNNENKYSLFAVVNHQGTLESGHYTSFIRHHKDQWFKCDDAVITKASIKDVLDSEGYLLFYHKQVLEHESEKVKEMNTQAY
T1 sequence (Q14CW9 1-347 partner): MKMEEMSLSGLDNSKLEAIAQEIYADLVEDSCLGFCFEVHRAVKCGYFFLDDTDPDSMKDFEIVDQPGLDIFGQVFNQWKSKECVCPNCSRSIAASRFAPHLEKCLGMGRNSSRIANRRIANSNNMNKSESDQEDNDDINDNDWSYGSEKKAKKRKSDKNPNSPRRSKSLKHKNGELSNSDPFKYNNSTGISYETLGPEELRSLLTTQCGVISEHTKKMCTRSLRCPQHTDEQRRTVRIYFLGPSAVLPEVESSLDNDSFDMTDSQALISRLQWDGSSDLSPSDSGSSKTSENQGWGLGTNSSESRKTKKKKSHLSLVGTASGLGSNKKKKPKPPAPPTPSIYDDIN
T1 sequence (Q9NPA8 1-101 partner): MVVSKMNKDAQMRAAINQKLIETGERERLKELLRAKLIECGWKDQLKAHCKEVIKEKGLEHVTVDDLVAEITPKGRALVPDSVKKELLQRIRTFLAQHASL
Description: (§1) Cleavage rates of 5 μM Ub-AMC were assayed for 75 nM USP22/ATXN7L3/ENY2/ATXN7 (hDUBm), 100 nM USP27x/ATXN7L3/ENY2, or 1000 nM USP51/ATXN7L3/ENY2. Rates were normalized to the uninhibited reaction in each case to determine the fraction of apparent activity.
(§2) DUB specificity assays Ubiquitin-rhodamine(110)-glycine cleavage rates were measured for all DUBs available in the DUBprofiler™ panel with two independent replicates (44 in total; Ubiquigent). […] USP22 was not included in the panel, and is not represented in FIG. 12A. […] Initial cleavage rates of each complex were measured on a fixed concentration of 5 μM Ub-AMC.
(§3) Heterotrimeric complexes containing USP27x and USP51 were purified, respectively, in complex with ENY2 and ATXN7L3. The activity of these complexes on Ub-AMC was compared to that of the human DUBm, which contains USP22, ENY2, ATXN7L3, and a fourth subunit, ATXN7, that anchors the DUBm to the rest of the SAGA complex.

[2] = target: T2, USP51/ATXN7L3/ENY2 (Homo sapiens, UniProt Q70EK9); assay: Inhibition of H2B DUB complexes, Ub-AMC cleavage: USP51 complex; type: biochemical; details: 1000 nM complex, 5 μM Ub-AMC
T2 construct: made in house
T2 sequence (Q70EK9 1-711): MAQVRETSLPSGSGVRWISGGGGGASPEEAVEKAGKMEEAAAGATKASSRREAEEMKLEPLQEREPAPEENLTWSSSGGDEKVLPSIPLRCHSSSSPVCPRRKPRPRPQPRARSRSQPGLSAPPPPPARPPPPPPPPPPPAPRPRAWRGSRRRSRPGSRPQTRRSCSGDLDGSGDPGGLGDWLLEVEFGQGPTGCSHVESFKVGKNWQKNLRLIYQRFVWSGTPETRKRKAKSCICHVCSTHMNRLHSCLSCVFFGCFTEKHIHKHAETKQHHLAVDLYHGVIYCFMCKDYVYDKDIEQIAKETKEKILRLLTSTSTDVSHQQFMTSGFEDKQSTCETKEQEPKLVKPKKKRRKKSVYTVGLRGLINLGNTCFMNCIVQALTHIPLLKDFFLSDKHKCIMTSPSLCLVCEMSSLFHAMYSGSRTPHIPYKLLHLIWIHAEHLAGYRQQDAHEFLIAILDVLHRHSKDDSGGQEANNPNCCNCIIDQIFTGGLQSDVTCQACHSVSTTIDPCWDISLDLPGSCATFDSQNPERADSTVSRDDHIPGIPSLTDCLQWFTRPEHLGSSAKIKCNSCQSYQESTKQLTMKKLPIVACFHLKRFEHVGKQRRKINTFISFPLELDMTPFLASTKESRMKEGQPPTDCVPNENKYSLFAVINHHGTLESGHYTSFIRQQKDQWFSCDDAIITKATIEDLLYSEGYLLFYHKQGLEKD
T2 sequence (Q14CW9 1-347 partner): T1 sequence (Q14CW9 1-347 partner)
T2 sequence (Q9NPA8 1-101 partner): T1 sequence (Q9NPA8 1-101 partner)
Description: as §1, §2, §3

For `CC[C@H](C)[C@@H]1NC(=O)[C@H](C)NC(=O)[C@@H](Cc2ccc(O)cc2)NC(=O)CSC[C@@H](C(N)=O)NC(=O)[C@H](CC(C)C)NC(=O)[C@H](CC(C)C)NC(=O)[C@H]([C@@H](C)O)NC(=O)[C@H]([C@@H](C)O)NC(=O)[C@H](CCCCN)NC(=O)CNC(=O)[C@H](CCCNC(=N)N)NC(=O)[C@H](Cc2ccc(O)cc2)NC(=O)[C@H](CO)NC1=O` [hD1] ({CH2CO}-[dY]AISYRGKTTLLC-NH2; thioether N-13), the IC50 [1] was 3 µM and the IC50 [2] was > 250 µM.
